# Reference: patent US7833939B2, “Herbicide compositions” (Kumiai Chemical Industry Co., Ltd., priority 2002, dated 2010)
# Legend:
# corn [1] = test: Herbicidal effect by upland field soil treatment (Application Example 2): phytotoxicity to corn; type: in vivo; details: 30th day from treatment
# Procedure: (§1) Test for Herbicidal Effect by Upland Field Soil Treatment
# (§2) An upland field soil was filled in a plastic pot of 11 cm each of length, width and depth. Seeds of corn and velvetleaf (Abutilon theophrasti Medic) were sowed, followed by covering with the same soil. The wettable powder produced in accordance with Formulation 1 was weighed so as to provide active ingredients in a predetermined amount, and was diluted with water and sprayed uniformly on the soil surface using a small sprayer, in an amount of 100 liters per […]. Then, growing was made in a greenhouse, and the herbicidal effect of each wettable powder was examined at the 30th day from the treatment in accordance with the standard shown in Table 15.
# [2] = test system: velvetleaf (Abutilon theophrasti Medic); test: Herbicidal effect by upland field soil treatment (Application Example 2): velvetleaf; type: in vivo; details: 30th day from treatment
# Procedure: as §1, §2
# corn [3] = test: Herbicidal effect by upland field soil treatment (Application Example 1): phytotoxicity to corn; type: in vivo; details: 30th day from treatment
# Procedure: as §1
# as §2, with “corn, green foxtail (Setaria viridis)” for “corn”, “common lambsquarters (Chenopodium album L.)” for “velvetleaf (Abutilon theophrasti Medic)”
# [4] = test system: green foxtail (Setaria viridis); test: Herbicidal effect by upland field soil treatment (Application Example 1): green foxtail; type: in vivo; details: 30th day from treatment
# Procedure: as §1
# as §2, with “corn, green foxtail (Setaria viridis)” for “corn”, “common lambsquarters (Chenopodium album L.)” for “velvetleaf (Abutilon theophrasti Medic)”
# [5] = test system: common lambsquarters (Chenopodium album L.); test: Herbicidal effect by upland field soil treatment (Application Example 1): common lambsquarters; type: in vivo; details: 30th day from treatment
# Procedure: as §1
# as §2, with “corn, green foxtail (Setaria viridis)” for “corn”, “common lambsquarters (Chenopodium album L.)” for “velvetleaf (Abutilon theophrasti Medic)”
# [6] = 16 g a.i./ha, upland field soil treatment
# [7] = 16 g a.i./ha, soil surface spray of wettable powder, index of Table 15
# [8] = 32 g a.i./ha, soil surface spray of wettable powder, index of Table 15
# [9] = 32 g a.i./ha, upland field soil treatment
smiles,measurement,setting,value
Cn1nc(C(F)(F)F)c(CS(=O)(=O)C2=NOC(C)(C)C2)c1OC(F)F [Compound 3-188],Corn,corn [1]; 16 g a.i./ha,0 (Herbicidal effect or phytotoxicity of from 0 to 9%)
same,Corn,corn [1]; 32 g a.i./ha,0 (Herbicidal effect or phytotoxicity of from 0 to 9%)
same,Velvetleaf (Abutilon theophrasti Medic),[2]; 16 g a.i./ha,2 (Herbicidal effect or phytotoxicity of from 20 to 29%)
same,Velvetleaf (Abutilon theophrasti Medic),[2]; 32 g a.i./ha,2 (Herbicidal effect or phytotoxicity of from 20 to 29%)
"CCOc1nn(C)c(C(F)(F)F)c1CS(=O)(=O)C1=NOC(C)(C)C1 [Compound 3-0012, 5,5-dimethyl-3-(3-ethoxy-1-methyl-5-trifluoromethyl-1H-pyrazol-4-ylmethylsulfonyl)-2-isoxazoline]",Herbicidal effect Corn,corn [3]; [6],0 (Herbicidal effect or phytotoxicity of from 0 to 9%)
same,Herbicidal effect Green foxtail (Sataria viridis),[4]; [6],2 (Herbicidal effect or phytotoxicity of from 20 to 29%)
same,Herbicidal effect Common lambsquarter (Chenopodium album L.),[5]; [6],1 (Herbicidal effect or phytotoxicity of from 10 to 19%)
same,melting point,,124 to 125 °C
CCNc1nc(Cl)nc(NC(C)C)n1 [Atrazine],Corn,corn [1]; 125 g a.i./ha,0 (Herbicidal effect or phytotoxicity of from 0 to 9%)
same,Velvetleaf (Abutilon theophrasti Medic),[2]; 125 g a.i./ha,1 (Herbicidal effect or phytotoxicity of from 10 to 19%)
"CCn1nc(C(F)(F)F)c(CS(=O)(=O)C2=NOC(C)(C)C2)c1OC(F)F [Compound 3-0190, 3-(5-difluoromethoxy-1-ethyl-3-trifluoromethyl-1H-pyrazol-4-ylmethanesulfonyl)-5,5-dimethyl-2-isoxazoline]",Herbicidal effect Corn,corn [3]; [7],0 (Herbicidal effect or phytotoxicity of from 0 to 9%)
same,Herbicidal effect Green foxtail (Sataria viridis),[4]; [7],3 (Herbicidal effect or phytotoxicity of from 30 to 39%)
same,Herbicidal effect Common lambsquarter (Chenopodium album L.),[5]; [7],1 (Herbicidal effect or phytotoxicity of from 10 to 19%)
same,melting point,,98 to 100 °C
"CON=C(C)c1c(C)sc(C)c1CS(=O)(=O)C1=NOC(C)(C)C1 [Compound 2-0001, 5,5-dimethyl-3-[2,5-dimethyl-4-(1-methoxyiminoethyl)-thiophen-3-ylmethylsulfonyl]-2-isoxazoline]",Herbicidal effect Corn,corn [3]; [8],0 (Herbicidal effect or phytotoxicity of from 0 to 9%)
same,Herbicidal effect Green foxtail (Sataria viridis),[4]; [8],2 (Herbicidal effect or phytotoxicity of from 20 to 29%)
same,Herbicidal effect Common lambsquarter (Chenopodium album L.),[5]; [8],1 (Herbicidal effect or phytotoxicity of from 10 to 19%)
same,melting point,,95 to 96 °C
"Cn1nc(C(F)(F)F)c(CS(=O)(=O)C2=NOC(C)(C)C2)c1Oc1ccccc1Cl [Compound 3-0014, 3-(5-(2-chlorophenoxy)-1-methyl-3-trifluoromethyl-1H-pyrazol-4-ylmethylsulfonyl)-5,5-dimethyl-2-isoxazoline]",Herbicidal effect Corn,corn [3]; [9],0 (Herbicidal effect or phytotoxicity of from 0 to 9%)
same,Herbicidal effect Green foxtail (Sataria viridis),[4]; [9],2 (Herbicidal effect or phytotoxicity of from 20 to 29%)
same,Herbicidal effect Common lambsquarter (Chenopodium album L.),[5]; [9],2 (Herbicidal effect or phytotoxicity of from 20 to 29%)
same,melting point,,67 to 70 °C
